Experimental data from patent US20250136594A1 (Tango Therapeutics, Inc., priority 2022, published 2025).
Like-named read-outs stand apart in the source and are kept apart here.

How the values were obtained:
[1] = tested on: SDMA in HAP1 MTAP-intact cell line (PRMT5 inhibition); test: SDMA in-cell western assay, HAP1 MTAP-intact cell line; conditions: Homo sapiens, HAP1, read-out: Hap1 MTAP intact IC50
[2] = tested on: SDMA in HAP1 MTAP-deleted (MTAP-null) cell line (PRMT5 inhibition); test: SDMA in-cell western assay, HAP1 MTAP-deleted cell line; conditions: for IC50 / IC90: Homo sapiens; for IC50: HAP1, read-out: Hap1 MTAP deleted IC50; for IC90: HAP1, read-out: Hap1 MTAP deleted IC90; for Hap1 MTAP intact/deleted ratio: ratio of SDMA IC50 in HAP1 MTAP-intact to HAP1 MTAP-deleted cell line
[3] = tested on: HAP1 MTAP-deleted cell line; test: Viability assay, HAP1 MTAP-deleted cell line; format: cell-based; conditions: Homo sapiens
[4] = viability assay, HAP1 MTAP-deleted cell line, read-out: Hap1 MTAP deleted viability IC50

| SMILES | IC50 [1] | IC50 [2] | IC90 [2] | Hap1 MTAP intact/deleted ratio [2] | IC50 [3, 4] | IC50 ([3]; HAP1, read-out: Hap1 MTAP deleted viability IC50) |
| --- | --- | --- | --- | --- | --- | --- |
| COc1ncc(NC(=O)C(=O)N(Cc2ccc(C(F)(F)F)cn2)C2CCC(C)c3ccccc32)cc1C(N)=O (stereo not shown) [Compound 33, N-(5-carbamoyl-6-methoxy-3-pyridyl)-N′-(4-methyltetralin-1-yl)-N′-[[5-(trifluoromethyl)-2-pyridyl]methyl]oxamide] | > 50 nM | 5 to 50 nM | > 125 nM | C (IC50 ratio of less than 15 fold) | < 100 nM | – |
| Cc1cccc(CN(Cc2ccccc2)C(=O)C(=O)Nc2cnc(N)c3cn[nH]c23)n1 [Compound 191, N-(4-amino-1H-pyrazolo[4,3-c]pyridin-7-yl)-N′-benzyl-N′-[(6-methyl-2-pyridyl)methyl]oxamide] | 5 to 50 nM | < 5 nM | < 75 nM | A (IC50 ratio greater than or equal to 30 fold) | < 100 nM | – |
| Nc1ncc(NC(=O)C(=O)N(Cc2ccccc2)Cc2ncccc2Cl)c2[nH]ncc12 [Compound 120, N-(4-amino-2H-pyrazolo[4,3-c]pyridin-7-yl)-N′-benzyl-N′-[(3-chloro-2-pyridyl)methyl]oxamide] | 5 to 50 nM | < 5 nM | < 75 nM | B (IC50 ratio greater than or equal to 15 fold but lower than 30 fold) | < 100 nM | – |
| C[C@@H](c1ccc(C(F)(F)C(F)(F)F)cc1)N(C)C(=O)C(=O)Nc1cnc(N)c2c1cnn2C [Compound 83, N-(7-Amino-1-methyl-pyrazolo[3,4-c]pyridin-4-yl)-N′-methyl-N′—[(1S)-1-[4-(1,1,2,2,2-pentafluoroethyl)phenyl]ethyl]oxamide] | > 50 nM | 5 to 50 nM | > 125 nM | A (IC50 ratio greater than or equal to 30 fold) | 100 to 1000 nM | – |
| Cc1cc(Cl)ccc1CN(Cc1ccccc1)C(=O)C(=O)Nc1cnc(N)c2cn[nH]c12 [Compound 186, N-(4-amino-1H-pyrazolo[4,3-c]pyridin-7-yl)-N′-benzyl-N′-[(4-chloro-2-methyl-phenyl)methyl]oxamide] | 5 to 50 nM | < 5 nM | < 75 nM | B (IC50 ratio greater than or equal to 15 fold but lower than 30 fold) | < 100 nM | – |
| Cc1ccnc(CN(Cc2ccccc2)C(=O)C(=O)Nc2cnc(N)c3cn[nH]c23)c1 [Compound 156, N-(4-amino-1H-pyrazolo[4,3-c]pyridin-7-yl)-N′-benzyl-N′-[(4-methyl-2-pyridyl)methyl]oxamide] | > 50 nM | < 5 nM | < 75 nM | A (IC50 ratio greater than or equal to 30 fold) | < 100 nM | – |
| CCN(Cc1cccc2ccccc12)C(=O)C(=O)Nc1cnc(N)c2cn[nH]c12 [Compound 176, N-(4-amino-1H-pyrazolo[4,3-c]pyridin-7-yl)-N′-ethyl-N′-(1-naphthylmethyl)oxamide] | > 50 nM | 5 to 50 nM | > 125 nM | A (IC50 ratio greater than or equal to 30 fold) | 100 to 1000 nM | – |
| Nc1ncc(NC(=O)C(=O)N(Cc2ccccc2)Cc2ccccc2)c2[nH]ncc12 [Compound 21, N-(4-amino-1H-pyrazolo[4,3-c]pyridin-7-yl)-N′,N′-dibenzyl-oxamide] | > 50 nM | < 5 nM | < 75 nM | – | – | < 100 nM |
| Nc1ncc(NC(=O)C(=O)N(Cc2ccccc2)Cc2ccc(Cl)cn2)c2[nH]ncc12 [Compound 158, N-(4-amino-1H-pyrazolo[4,3-c]pyridin-7-yl)-N′-benzyl-N′-[(5-chloro-2-pyridyl)methyl]oxamide] | 5 to 50 nM | < 5 nM | < 75 nM | C (IC50 ratio of less than 15 fold) | < 100 nM | – |
| Nc1ncc(NC(=O)C(=O)N(Cc2ccccc2)Cc2ccncc2)c2[nH]ncc12 [Compound 27, N-(4-amino-1H-pyrazolo[4,3-c]pyridin-7-yl)-N′-benzyl-N′-(4-pyridylmethyl)oxamide] | > 50 nM | < 5 nM | < 75 nM | A (IC50 ratio greater than or equal to 30 fold) | < 100 nM | – |
| Cc1ccccc1CN(CC(C)C)C(=O)C(=O)Nc1cnc(N)c2cn[nH]c12 [Compound 185, N-(4-amino-1H-pyrazolo[4,3-c]pyridin-7-yl)-N′-isobutyl-N′-(o-tolylmethyl)oxamide] | > 50 nM | < 5 nM | < 75 nM | A (IC50 ratio greater than or equal to 30 fold) | < 100 nM | – |
| Nc1ncc(NC(=O)C(=O)N(CCC(F)(F)F)Cc2ccccc2)c2[nH]ncc12 [Compound 102, N-(4-amino-1H-pyrazolo[4,3-c]pyridin-7-yl)-N′-benzyl-N′-(3,3,3-trifluoropropyl)oxamide] | > 50 nM | 5 to 50 nM | > 125 nM | A (IC50 ratio greater than or equal to 30 fold) | 100 to 1000 nM | – |

Now from value to compound, other results behind:

| IC50 [1] | IC50 [2] | IC90 [2] | SMILES | Hap1 MTAP intact/deleted ratio [2] | IC50 [3, 4] | IC50 ([3]; HAP1, read-out: Hap1 MTAP deleted viability IC50) |
| --- | --- | --- | --- | --- | --- | --- |
| < 5 nM | < 5 nM | < 75 nM | Nc1ncc(NC(=O)C(=O)N(Cc2ccc(C(F)(F)F)cn2)[C@@H]2CCc3ccccc32)c2[nH]ncc12 [Compound 8, (R)-N1-(4-amino-1H-pyrazolo[4,3-c]pyridin-7-yl)-N2-(2,3-dihydro-1H-inden-1-yl)-N2-((5-(trifluoromethyl)pyridin-2-yl)methyl)oxalamide] | C (IC50 ratio of less than 15 fold) | < 100 nM | – |
| > 50 nM | < 5 nM | < 75 nM | CCN(C(=O)C(=O)Nc1cnc(N)c2cn[nH]c12)C(C)c1ccc(C(F)(F)F)cc1 (stereo not shown) [Compound 58, N-(4-amino-1H-pyrazolo[4,3-c]pyridin-7-yl)-N′-ethyl-N′-[1-[4-(trifluoromethyl)phenyl]ethyl]oxamide] | B (IC50 ratio greater than or equal to 15 fold but lower than 30 fold) | < 100 nM | – |
| 5 to 50 nM | < 5 nM | < 75 nM | CC[C@@H](C)CN(Cc1ccc(C(F)(F)F)cn1)C(=O)C(=O)Nc1cnc(N)c2cn[nH]c12 [Compound 75, (R)—N^1-(4-amino-1H-pyrazolo[4,3-c]pyridin-7-yl)-N^2-(2-methylbutyl)-N^2-((5-(trifluoromethyl)pyridin-2-yl)methyl)oxalamide] | C (IC50 ratio of less than 15 fold) | < 100 nM | – |
| 5 to 50 nM | < 5 nM | < 75 nM | CCN(C(=O)C(=O)Nc1cnc(N)c2cn[nH]c12)[C@H](C)c1ccc(C(F)(F)C(F)(F)F)cc1C [Compound 59, (R)—N^1-(4-amino-1H-pyrazolo[4,3-c]pyridin-7-yl)-N^2-ethyl-N^2-(1-(2-methyl-4-(perfluoroethyl)phenyl)ethyl)oxalamide] | C (IC50 ratio of less than 15 fold) | < 100 nM | – |
| > 50 nM | < 5 nM | > 125 nM | Nc1ncc(NC(=O)C(=O)N(Cc2ccc(C(F)(F)F)cc2)Cc2ccc(C(F)(F)F)nc2)c2[nH]ncc12 [Compound 28, N-(4-amino-1H-pyrazolo[4,3-c]pyridin-7-yl)-N′-[[4-(trifluoromethyl)phenyl]methyl]-N′-[[6-(trifluoromethyl)-3-pyridyl]methyl]oxamide] | A (IC50 ratio greater than or equal to 30 fold) | 100 to 1000 nM | – |
| > 50 nM | < 5 nM | < 75 nM | CN(Cc1ccc(C(F)(F)C(F)(F)F)cc1F)C(=O)C(=O)Nc1cnc(N)c2cn[nH]c12 [Compound 157] | A (IC50 ratio greater than or equal to 30 fold) | < 100 nM | – |
| 5 to 50 nM | 5 to 50 nM | < 75 nM | CC1CCC(N(Cc2ccc(C(F)(F)F)cn2)C(=O)C(=O)Nc2cnc(N)c3cn[nH]c23)c2ccccc21 (stereo not shown) [Compound 3, N1-(4-amino-1H-pyrazolo[4,3-c]pyridin-7-yl)-N^2-(4-methyl-1,2,3,4-tetrahydronaphthalen-1-yl)-N^2-((5-(trifluoromethyl)pyridin-2-yl)methyl)oxalamide] | C (IC50 ratio of less than 15 fold) | < 100 nM | – |
| 5 to 50 nM | < 5 nM | < 75 nM | COC[C@@H](C1CC1)N(Cc1ccc(C(F)(F)F)cn1)C(=O)C(=O)Nc1cnc(N)c2cn[nH]c12 [Compound 39, (R)-N1-(4-amino-1H-pyrazolo[4,3-c]pyridin-7-yl)-N^2-(1-cyclopropyl-2-methoxyethyl)-N^2-((5-(trifluoromethyl)pyridin-2-yl)methyl)oxalamide] | B (IC50 ratio greater than or equal to 15 fold but lower than 30 fold) | < 100 nM | – |
| 5 to 50 nM | < 5 nM | < 75 nM | Cc1ccccc1CN(Cc1ccc(C(F)(F)F)cn1)C(=O)C(=O)Nc1cnc(N)c2cn[nH]c12 [Compound 76, N-(4-amino-1H-pyrazolo[4,3-c]pyridin-7-yl)-N′-(o-tolylmethyl)-N′-[[5-(trifluoromethyl)-2-pyridyl]methyl]oxamide] | C (IC50 ratio of less than 15 fold) | < 100 nM | – |
| 5 to 50 nM | < 5 nM | < 75 nM | Nc1ncc(NC(=O)C(=O)N(Cc2ccc(C(F)(F)F)cn2)[C@@H]2CCC[C@H]2OC(F)F)c2[nH]ncc12 [Compound 43, N1-(4-amino-1H-pyrazolo[4,3-c]pyridin-7-yl)-N^2-((1R,2R)-2-(difluoromethoxy)cyclopentyl)-N^2-((5-(trifluoromethyl)pyridin-2-yl)methyl)oxalamide] | C (IC50 ratio of less than 15 fold) | < 100 nM | – |
